Results on 74 compounds are retold here after PubChem BioAssay AID1996.

Molecules are shown by their SMILES. ≈ marks a conversion by molar mass, not a printed value. A value given as a limit tells only on which side of the number the result lay.

For the data set the following is noted: buffer; pH 7.4; 200.0 µM.
Regarding `CC(C)Cc1nnc(NC(=O)CCC(=O)NC2CC2)s1`, the solubility (kinetic) is over 44.5 µg/mL.
`COc1ccc(NS(=O)(=O)c2ccc(C(=O)NCC3(N4CCOCC4)CCCCC3)cc2)cc1` displayed a solubility (kinetic) of 13.8 µg/mL (≈ 28.3 µM).
In the case of `CC(C)C(NC(=O)c1ccccc1NC(=O)C(C)(C)C)C(=O)N1CCOCC1` (centres undefined) it was 37 µg/mL (≈ 95 µM).
The same measure for `N#CCSc1nc2ccccc2c(=O)n1CCCC(=O)NCc1ccco1`: 2.5 µg/mL (≈ 6.54 µM); for `N#Cc1cnc(SCC(=O)N2CCCC2)nc1N`: over 39.5 µg/mL.
On to `CNc1ccc(C(=O)c2ccccc2C(=O)O)cc1[N+](=O)[O-]`, for which the solubility (kinetic) is over 45 µg/mL.
As for `CCOC(=O)c1[nH]c2ccccc2c1NC(=O)NC(C)C`, the solubility (kinetic) was 1.7 µg/mL (≈ 5.88 µM).
Compound `CNC(=O)C(=O)Nc1cc2c3c(c1)CCC(=O)N3CCC2` gave a kinetic solubility of 19 µg/mL (≈ 66.1 µM).
In the case of `O=C(Nc1ccccc1)C1CC2CCC1C2` (centres undefined), the kinetic solubility turned out to be 31.8 µg/mL (≈ 148 µM).
For `CCc1cccc(C)c1NC(=O)c1ccc2c(c1)CCN2S(C)(=O)=O`, the solubility (kinetic) was 19.3 µg/mL (≈ 53.8 µM).
`CCC(Sc1ncccc1Nc1ccccn1)C(=O)O` (centres undefined) yielded a solubility (kinetic) of over 43.4 µg/mL.
Compound `CCOc1ccccc1C(=O)NN1CCOCC1` gave a kinetic solubility of over 37.5 µg/mL.
`COc1ccc(-c2csc(-c3[nH]cnc3N)n2)cc1` returned a solubility (kinetic) of 18.1 µg/mL (≈ 66.5 µM).
In the case of `O=C(NC1CCC1)C1CCC(=O)N(Cc2cccc(F)c2)C1` (centres undefined), the kinetic solubility was over 45.7 µg/mL.
Compound `COc1ccc(/C(N)=N/OC(=O)C2CCCCC2)cc1OC` yielded a kinetic solubility of 35.2 µg/mL (≈ 115 µM).
As to `Cc1nn(C)c(C)c1NS(=O)(=O)c1c(C)n[nH]c1C`, the solubility (kinetic) is over 42.5 µg/mL.
Take `Cc1cccc(CN2CCN(C(=S)Nc3ccccc3)CC2)c1`: the solubility (kinetic) was over 48.8 µg/mL.
The same measure for `Cc1cccc(C)c1NC(=O)NC1(C(=O)NCc2ccncc2)CCCCC1`: over 57.1 µg/mL; for `O=C(N/N=C1\CC2CC=CC12)c1ccc(Br)cc1` (centres undefined): over 45.8 µg/mL.
With `CC1=C(C(N)=O)C(c2cccs2)NC(=O)N1` (centres undefined), the kinetic solubility was over 35.6 µg/mL.
The same measure for `CC(NC(=O)CN(C)Cc1cccc(Cl)c1)c1ccccc1` (centres undefined): 38.6 µg/mL (≈ 122 µM); for `N#Cc1ccc(C(=O)N2CCN(C(=O)C3CCCO3)CC2)cc1` (centres undefined): over 47 µg/mL; for `Cc1nn(CC(=O)NC2CCCCC2)c(=O)c2cccn12`: over 43.3 µg/mL.
Compound `CCC(C)N1CCN(S(=O)(=O)c2ccc(NC(C)=O)cc2)CC1` (centres undefined) registered a kinetic solubility of 46.7 µg/mL (≈ 138 µM).
`CN(C)S(=O)(=O)c1cccc(C(=O)c2nccn2C)c1` came in with a solubility (kinetic) of 41.5 µg/mL (≈ 141 µM).
As to `Cc1cc(C)cc(NC(=O)CN2CCN(c3ccccc3)CC2)c1`, the kinetic solubility worked out at 1.8 µg/mL (≈ 5.57 µM).
For `N#Cc1ccc(C(=O)NC(=S)N2CCN(C=O)CC2)cc1`, the kinetic solubility was determined as 39 µg/mL (≈ 129 µM).
In the case of `O=C(NC1CCCC1)c1ccc(Cl)s1`, the solubility (kinetic) was 30.7 µg/mL (≈ 134 µM).
Take `COc1ccc(S(=O)(=O)n2c(C)nc3ccccc32)cc1C`: the kinetic solubility amounted to 36.2 µg/mL (≈ 114 µM).
The compound `CN(C)C(=O)c1cc2cc(Br)ccc2s1` returned a kinetic solubility of 7.4 µg/mL (≈ 26 µM).
The same measure for `Cc1cc(C)nc(/N=C(\N)Nc2ccc(OCCC(C)C)cc2)n1`: over 49.1 µg/mL; for `COCCN(C(=O)c1ccco1)c1nc(-c2ccccc2)cs1`: 5.7 µg/mL (≈ 17.4 µM); for `Cn1c(SCC(N)=O)nnc1-c1ccc(C(C)(C)C)cc1`: over 45.7 µg/mL.
`O=C1CC(C(=O)N2CCCc3ccccc32)CN1c1ccc(Cl)cc1` (centres undefined) yielded a solubility (kinetic) of 46.2 µg/mL (≈ 130 µM).
The compound `O=C(COC(=O)/C=C/c1cccc(F)c1)Nc1ncccn1` came in with a solubility (kinetic) of 27.7 µg/mL (≈ 91.9 µM).
In the case of `Cc1ccc2cc(NC(=O)c3ccc(C(C)(C)C)cc3)ccc2n1` it was under 0.3 µg/mL.
The same measure for `CC1CCN(S(=O)(=O)c2cnc[nH]2)CC1`: over 34.4 µg/mL; for `Cc1cc(N2CCCCC2)nc2c(C)cccc12`: under 0.3 µg/mL; for `N#Cc1cccc(NC(=O)c2cncn2-c2ccccc2)c1`: 41.8 µg/mL (≈ 145 µM).
In turn, `O=C(Nc1c[nH]c(=O)[nH]c1=O)c1ccccc1Cl` showed a kinetic solubility of over 39.8 µg/mL.
The compound `O=C(Nc1ccc(Cl)cc1)c1csc(Cc2ccccc2)n1` yielded a solubility (kinetic) of 1.1 µg/mL (≈ 3.35 µM).
`OC(c1ccccc1)c1nccc2ccccc12` (centres undefined) had a solubility (kinetic) of over 35.3 µg/mL.
For `COc1ccc(C(=O)N2CCC(C(=O)Nc3ccc(C)cc3)CC2)cc1`, the solubility (kinetic) is over 52.9 µg/mL.
In turn, `CC(=O)c1c(COC(=O)c2ccc(Cl)cc2)nc2ccccc2[n+]1[O-]` showed a solubility (kinetic) of 0.6 µg/mL (≈ 1.68 µM).
With `O=S(=O)(Nc1ccc(-c2nc3cccnc3s2)cc1)c1ccccc1F`, the kinetic solubility came to 0.8 µg/mL (≈ 2.08 µM).
As to `O=C(O)CCC(=O)NN1C(=O)c2ccccc2NC1c1ccc(F)cc1` (centres undefined), the solubility (kinetic) is over 53.6 µg/mL.
The compound `Br.Cc1ccc(C2Cc3cc(O)c(O)cc3CN2)cc1` (centres undefined) registered a solubility (kinetic) of 44.3 µg/mL.
For `COc1ccccc1/C=C/C(=O)Nc1cccnc1`, the solubility (kinetic) was over 38.1 µg/mL.
Turning to `Cc1ccc(C(=O)Nc2nc3ccc(S(C)(=O)=O)cc3s2)cc1C`, the kinetic solubility is under 0.4 µg/mL.
The compound `Cc1ccc(C(=O)NCCN2CCNC2=O)cc1` had a solubility (kinetic) of over 37.1 µg/mL.
Compound `CCOC(=O)[C@H](CCc1ccccc1)N[C@@H](C)C(=O)N1Cc2ccccc2C[C@H]1C(=O)O.Cl` registered a solubility (kinetic) of over 71.2 µg/mL.
In the case of `CNC(=O)C(C)N1c2cccc3cccc(c23)S1(=O)=O` (centres undefined), the kinetic solubility stood at 34.6 µg/mL (≈ 119 µM).
The compound `O=C(Nc1ccc(CN2CCOCC2)cc1)c1ccco1` returned a kinetic solubility of over 42.9 µg/mL.
`Cc1ccc(NC(=O)c2ccc(OCc3c(C)noc3C)cc2)cc1` yielded a kinetic solubility of under 0.4 µg/mL.
On to `O=c1cc([O-])n(Cc2ccc(F)cc2)c(=O)[nH]1.[NH4+]`, for which the solubility (kinetic) is over 38 µg/mL.
The compound `O=C(CN1C(=O)NC2(CCCC2)C1=O)OCc1ccccc1` gave a solubility (kinetic) of 21.8 µg/mL (≈ 72.1 µM).
As for `CC(C)N(C)CCOC(=O)C1COc2ccccc2O1.Cl` (centres undefined), the kinetic solubility is over 47.4 µg/mL.
In turn, `O=C(CCCl)Nc1nc2c(s1)CCc1ccccc1-2` gave a solubility (kinetic) of 7.2 µg/mL (≈ 24.6 µM).
In the case of `O=C(O)Cc1ccc2oc(-c3ccccn3)nc2c1` it was over 38.1 µg/mL; in that of `CC(=O)c1cccc(NC(=O)c2cccc(NC(=O)c3ccco3)c2)c1`, under 0.4 µg/mL; in that of `Cc1cccc(Nc2nc(N)nc(-c3oc4ccccc4c3C)n2)c1`, under 0.1 µg/mL.
In turn, `CCC(/C=N/NC(=O)c1ccccc1F)CC` registered a solubility (kinetic) of over 35.4 µg/mL.
As to `CC(C)(C)C(=O)Nc1cc2c3c(c1)CC(=O)N3CCC2`, the solubility (kinetic) came out at 35.9 µg/mL (≈ 132 µM).
In turn, `O=C(c1ccc([N+](=O)[O-])cc1)N1CCN(C(=O)c2ccco2)CC1` registered a solubility (kinetic) of over 49.4 µg/mL.
As to `O=C1NC(=O)/C(=C\c2cn(Cc3ccccc3F)c3ccccc23)N1`, the solubility (kinetic) was 0.8 µg/mL (≈ 2.39 µM).
The compound `CC1(C)CC(NC2C3CC4CC(C3)CC2C4)CC(C)(C)N1.Cl` (centres undefined) showed a solubility (kinetic) of over 54.5 µg/mL.
In the case of `CCOC(=O)c1oc2nc(CC(C)C)c3c(c2c1N)CCCC3` it was 1.4 µg/mL (≈ 4.42 µM); in that of `CC1CC(C)CN(CC(=O)N2CCOCC2)C1.Cl` (centres undefined), over 41.5 µg/mL.
In turn, `Cc1ccc(SCCNC(=O)c2ccccc2F)cc1` returned a kinetic solubility of 27.8 µg/mL (≈ 96.1 µM).
The same measure for `COc1ccnc2c1c(=O)n(Cc1ccccc1Cl)c(=O)n2C`: 36 µg/mL (≈ 109 µM); for `CCOc1ccc2c(c1)c1nc3ccccc3nc1n2C`: under 0.2 µg/mL; for `CC1=Nc2cc([N+](=O)[O-])ccc2NC(C)(C)C1`: 17 µg/mL (≈ 72.9 µM).
Compound `COc1ccc(OC)c(-c2c3c([nH]c(=S)c2C#N)CCCC3)c1` gave a kinetic solubility of 10.4 µg/mL (≈ 31.9 µM).
Compound `O=C1C2C3C=CC(CC3)C2C(=O)N1c1ccc(Cl)cc1` (centres undefined) gave a solubility (kinetic) of under 0.6 µg/mL.
